PMC12406203 (Journal of Medicinal Chemistry, 2025)

How the values were obtained:
[1] = tested on: scopolamine-induced cognitive deficits in mice; experiment: Passive avoidance task, scopolamine-induced amnesia; type: in vivo; details: for efficacy in PA task: 5 mg/kg i.p., scopolamine model; for step-through latency, retention trial (PA task): 10 mg/kg i.p., vs scopolamine-treated control mice
Excerpt: In the scopolamine model, the PA and NOR tasks were used for dose selection for further testing.
The mice had unlimited access to food and water prior to the experiment. Specified conditions for the maintenance of mice were ensured throughout the experiment, including tree bedding (Transwior, Poland) and cage enrichment (tunnels, nesting material, wooden igloos, etc.). For behavioral tests, the mice were selected randomly; each group consisted of 7–10 mice.
Scopolamine hydrobromide (Sigma-Aldrich, Poland) at the dose of 1 mg/kg was used to induce learning and memory deficits. For the in vivo tests, scopolamine was prepared in distilled water (Polfa Kutno, Poland) and was administered subcutaneously (s.c.) 30 min before behavioral tests during the acquisition (training) trial of PA and NOR tasks. […] They were administered intraperitoneally (i.p.) 60 min before the acquisition trial of the PA, NOR, and MWM tasks.
The PA apparatus (Panlab Harvard Apparatus, Spain) consists of a large white-colored illuminated compartment (26 cm × 26 cm × 34 cm) and a small black-colored compartment (13 cm × 7.5 cm × 7.5 cm), which are separated from each other by a guillotine gate (5 cm × 5 cm). The PA task is divided into two trials (i.e., the acquisition trial and the retention trial), each conducted 24 h apart. On the first day, during the acquisition trial (a conditioning phase), the test compounds (94 and 95, neflamapimod and vehicle) were injected. Also, before the acquisition trial, scopolamine or LPS was administered at selected time points. Then, each mouse was placed into the white compartment, and a 30 s habituation period began (guillotine gate is closed). After that, the guillotine gate was opened, and the mice were tested during the 180 s testing period. As soon as the mouse entered the black compartment of the PA device, the guillotine gate was closed and an electrical shock (intensity: 0.2 mA, duration: 2 s) was automatically applied through the grid floor. For each mouse, the latency between the opening of the guillotine gate and the mouse’s entering the black compartment was measured. On the next day, during the retention (drug-off) trial, the mice were placed again into the white compartment for a 30 s habituation period, and the latency to enter the black compartment was measured for each mouse.

PAK4 = target: T1, PAK4 (Homo sapiens, UniProt O96013); experiment: KINOMEscan; type: binding
T1 construct: purchased Eurofins DiscoverX, LLC; host or cells: E. coli BL21-derived host (T7 phage) or HEK-293
Method: (§1) The kinase inhibition profile of compounds 94 and 95 was assessed against 103 protein kinases by Eurofins DiscoverX, LLC., using the KINOMEscan assay. Kinase-tagged T7 phage strains were grown in parallel in 24-well blocks in an E. coli host derived from the BL21 strain. E. coli were grown to log-phase and infected with T7 phage from a frozen stock (multiplicity of infection = 0.4) and incubated with shaking at 32 °C until lysis (90–150 min). The lysates were centrifuged (6000g) and filtered (0.2 μm) to remove cell debris. The remaining kinases were produced in HEK-293 cells and subsequently tagged with DNA for qPCR detection. […] The liganded beads were blocked with excess biotin and washed with blocking buffer (SeaBlock (Pierce), 1% BSA, 0.05% Tween 20, 1 mM DTT) to remove unbound ligand and to reduce nonspecific phage binding. […] Test compounds were prepared as 100× stocks in 100% DMSO and directly diluted into the assay. All reactions were performed in polypropylene 384-well plates in a final volume of 0.02 mL. […] The kinase concentration in the eluates was measured by qPCR.
(§2) The compound(s) were screened at the concentration(s) requested, and results for primary screen binding interactions are reported as RA (%), where lower numbers indicate stronger hits in the matrix. RA=(testcompoundsignal−PCsignal/NCsignal−PCsignal)×100

BTK = target: T2, BTK (Homo sapiens, UniProt Q06187); experiment: KINOMEscan; type: binding
T2 construct: purchased Eurofins DiscoverX, LLC; host or cells: E. coli BL21-derived (T7 phage) or HEK-293
Method: as §1, §2

JNK1 = target: T3, JNK1 (Homo sapiens, UniProt P45983); experiment: KINOMEscan; type: binding
T3 construct: purchased Eurofins DiscoverX, LLC; host or cells: E. coli (BL21-derived, T7 phage) or HEK-293
Method: as §1, §2

SNARK = target: T4, SNARK (Homo sapiens, UniProt Q9H093); experiment: KINOMEscan; type: binding
T4 construct: purchased Eurofins DiscoverX, LLC; host or cells: E. coli BL21-derived host (T7 phage) or HEK-293
T4 sequence (Q9H093 1-628): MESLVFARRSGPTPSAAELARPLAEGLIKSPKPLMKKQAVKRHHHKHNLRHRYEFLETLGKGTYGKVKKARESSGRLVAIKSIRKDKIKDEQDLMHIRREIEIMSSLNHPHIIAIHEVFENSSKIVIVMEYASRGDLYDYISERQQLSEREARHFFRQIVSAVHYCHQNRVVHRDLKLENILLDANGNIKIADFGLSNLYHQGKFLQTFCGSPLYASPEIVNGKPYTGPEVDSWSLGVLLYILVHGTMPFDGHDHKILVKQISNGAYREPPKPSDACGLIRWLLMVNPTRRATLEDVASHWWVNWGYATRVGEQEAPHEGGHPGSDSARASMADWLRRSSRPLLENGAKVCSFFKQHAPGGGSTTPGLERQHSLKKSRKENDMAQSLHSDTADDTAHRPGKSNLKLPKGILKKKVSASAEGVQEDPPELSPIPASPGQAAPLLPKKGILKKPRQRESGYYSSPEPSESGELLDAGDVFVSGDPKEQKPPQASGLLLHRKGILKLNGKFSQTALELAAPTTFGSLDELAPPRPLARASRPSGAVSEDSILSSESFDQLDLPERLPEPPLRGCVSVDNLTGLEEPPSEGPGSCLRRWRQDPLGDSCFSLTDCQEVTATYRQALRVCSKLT
Method: as §1, §2

BRAF(V600E) = target: T5, BRAF(V600E) (Homo sapiens, UniProt P15056, V600E); experiment: KINOMEscan; type: binding
T5 construct: purchased Eurofins DiscoverX, LLC; host or cells: E. coli BL21-derived (T7 phage) or HEK-293
Method: as §1, §2

CDK11 = target: T6, CDK11 (Homo sapiens, UniProt Q9BWU1); experiment: KINOMEscan; type: binding
T6 construct: purchased Eurofins DiscoverX, LLC; host or cells: E. coli BL21-derived (T7 phage) or HEK-293
Method: as §1, §2

PLK3 = target: T7, PLK3 (Homo sapiens, UniProt Q9H4B4); experiment: KINOMEscan; type: binding
T7 construct: purchased Eurofins DiscoverX, LLC; host or cells: E. coli BL21-derived host (T7 phage) or HEK-293
Method: as §1, §2

AKT2 = target: T8, AKT2 (Homo sapiens, UniProt P31751); experiment: KINOMEscan; type: binding
T8 construct: purchased Eurofins DiscoverX, LLC; host or cells: E. coli BL21-derived (T7 phage) or HEK-293
Method: as §1, §2

TGFBR1 = target: T9, TGFBR1 (Homo sapiens, UniProt P36897); experiment: KINOMEscan; type: binding
T9 construct: purchased Eurofins DiscoverX, LLC; host or cells: E. coli BL21-derived host (T7 phage) or HEK-293
T9 sequence (P36897 34-503): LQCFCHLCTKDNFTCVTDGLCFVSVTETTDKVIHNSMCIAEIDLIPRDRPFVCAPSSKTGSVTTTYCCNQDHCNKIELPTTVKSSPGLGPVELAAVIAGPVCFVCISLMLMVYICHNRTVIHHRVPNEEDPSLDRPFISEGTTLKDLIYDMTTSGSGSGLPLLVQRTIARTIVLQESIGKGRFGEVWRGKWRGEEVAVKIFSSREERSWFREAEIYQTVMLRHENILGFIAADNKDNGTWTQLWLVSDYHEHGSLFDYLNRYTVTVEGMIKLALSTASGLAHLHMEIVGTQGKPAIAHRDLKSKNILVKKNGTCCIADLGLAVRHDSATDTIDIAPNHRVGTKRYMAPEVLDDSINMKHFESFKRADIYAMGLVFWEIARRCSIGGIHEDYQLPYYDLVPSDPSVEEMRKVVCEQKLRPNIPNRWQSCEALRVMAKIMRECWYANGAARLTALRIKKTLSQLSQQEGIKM
Method: as §1, §2

RIOK2 = target: T10, RIOK2 (Homo sapiens, UniProt Q9BVS4); experiment: KINOMEscan; type: binding
T10 construct: purchased Eurofins DiscoverX, LLC; host or cells: E. coli BL21-derived host (T7 phage) or HEK-293
Method: as §1, §2

[2] = target: T11, ABL1(E255K)-phosphorylated (Homo sapiens, UniProt P00519, E255K); experiment: KINOMEscan; type: binding
T11 construct: purchased Eurofins DiscoverX, LLC; host or cells: E. coli BL21-derived (T7 phage) or HEK-293
Method: as §1, §2

ADCK3 = target: T12, ADCK3 (Homo sapiens, UniProt Q8NI60); experiment: KINOMEscan; type: binding
T12 construct: purchased Eurofins DiscoverX, LLC; host or cells: E. coli BL21-derived (T7 phage) or HEK-293
Method: as §1, §2

[3] = tested on: RSK2 (Kin.Dom.1-N-terminal)

T11 sequence (P00519 whole entry E255K): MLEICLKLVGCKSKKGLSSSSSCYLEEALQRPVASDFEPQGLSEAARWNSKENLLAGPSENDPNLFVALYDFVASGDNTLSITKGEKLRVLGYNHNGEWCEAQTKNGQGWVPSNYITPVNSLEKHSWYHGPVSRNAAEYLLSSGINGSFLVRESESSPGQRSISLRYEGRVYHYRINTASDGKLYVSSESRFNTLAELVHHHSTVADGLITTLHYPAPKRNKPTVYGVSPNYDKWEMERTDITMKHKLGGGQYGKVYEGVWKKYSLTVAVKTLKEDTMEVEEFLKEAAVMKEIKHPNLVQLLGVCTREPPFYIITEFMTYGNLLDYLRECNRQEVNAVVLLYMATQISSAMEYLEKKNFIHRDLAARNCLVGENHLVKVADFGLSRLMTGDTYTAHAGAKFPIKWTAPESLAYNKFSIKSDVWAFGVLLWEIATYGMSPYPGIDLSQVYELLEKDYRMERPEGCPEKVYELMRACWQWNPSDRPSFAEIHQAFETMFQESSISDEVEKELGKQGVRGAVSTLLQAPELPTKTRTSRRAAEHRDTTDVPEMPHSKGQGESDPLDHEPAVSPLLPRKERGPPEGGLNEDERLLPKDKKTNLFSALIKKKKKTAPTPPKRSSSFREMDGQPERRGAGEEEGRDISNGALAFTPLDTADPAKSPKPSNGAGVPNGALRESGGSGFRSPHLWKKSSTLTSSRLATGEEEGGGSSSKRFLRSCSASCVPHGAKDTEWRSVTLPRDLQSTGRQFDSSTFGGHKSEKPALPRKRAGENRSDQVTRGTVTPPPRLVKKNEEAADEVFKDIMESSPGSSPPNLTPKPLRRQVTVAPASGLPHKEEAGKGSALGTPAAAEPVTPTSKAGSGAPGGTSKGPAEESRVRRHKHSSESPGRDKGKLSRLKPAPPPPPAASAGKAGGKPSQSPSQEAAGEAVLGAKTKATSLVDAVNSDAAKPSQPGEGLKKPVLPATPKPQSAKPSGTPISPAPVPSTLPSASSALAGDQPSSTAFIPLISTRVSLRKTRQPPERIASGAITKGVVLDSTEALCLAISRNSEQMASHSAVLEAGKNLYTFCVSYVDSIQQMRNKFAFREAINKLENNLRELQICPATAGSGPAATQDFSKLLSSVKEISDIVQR
T2 sequence (Q06187 whole entry): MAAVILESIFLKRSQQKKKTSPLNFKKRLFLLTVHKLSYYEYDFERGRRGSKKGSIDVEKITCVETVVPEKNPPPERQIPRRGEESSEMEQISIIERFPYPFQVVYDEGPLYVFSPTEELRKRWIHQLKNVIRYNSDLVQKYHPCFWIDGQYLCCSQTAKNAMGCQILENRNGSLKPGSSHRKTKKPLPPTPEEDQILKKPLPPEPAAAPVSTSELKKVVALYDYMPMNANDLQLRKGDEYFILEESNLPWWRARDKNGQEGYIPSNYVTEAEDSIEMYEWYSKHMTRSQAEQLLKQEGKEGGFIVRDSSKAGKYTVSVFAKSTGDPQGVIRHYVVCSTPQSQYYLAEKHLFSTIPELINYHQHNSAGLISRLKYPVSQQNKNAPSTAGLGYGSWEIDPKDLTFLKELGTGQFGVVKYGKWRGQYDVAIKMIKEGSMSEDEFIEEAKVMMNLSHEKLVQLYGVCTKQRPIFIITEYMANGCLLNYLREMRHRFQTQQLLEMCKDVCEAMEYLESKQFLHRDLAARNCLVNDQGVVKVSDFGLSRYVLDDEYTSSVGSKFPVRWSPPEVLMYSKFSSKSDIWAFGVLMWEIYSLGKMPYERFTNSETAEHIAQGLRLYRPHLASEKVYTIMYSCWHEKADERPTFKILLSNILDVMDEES
T1 sequence (O96013 whole entry): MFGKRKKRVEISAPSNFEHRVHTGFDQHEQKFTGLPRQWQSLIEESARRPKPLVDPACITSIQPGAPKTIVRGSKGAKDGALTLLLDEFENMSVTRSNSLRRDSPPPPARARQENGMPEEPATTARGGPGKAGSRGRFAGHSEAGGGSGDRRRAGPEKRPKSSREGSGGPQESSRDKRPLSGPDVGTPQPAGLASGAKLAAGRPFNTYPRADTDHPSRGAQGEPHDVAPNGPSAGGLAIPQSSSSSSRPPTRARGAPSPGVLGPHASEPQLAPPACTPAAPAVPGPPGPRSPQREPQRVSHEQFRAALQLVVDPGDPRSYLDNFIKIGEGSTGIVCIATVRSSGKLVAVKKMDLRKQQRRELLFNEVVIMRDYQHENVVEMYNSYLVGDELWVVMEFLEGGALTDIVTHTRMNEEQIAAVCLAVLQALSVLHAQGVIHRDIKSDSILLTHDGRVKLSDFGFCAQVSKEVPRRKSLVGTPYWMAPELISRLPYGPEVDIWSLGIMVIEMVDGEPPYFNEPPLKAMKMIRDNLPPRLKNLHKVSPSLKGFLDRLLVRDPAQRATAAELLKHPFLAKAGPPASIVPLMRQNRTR
T3 sequence (P45983 whole entry): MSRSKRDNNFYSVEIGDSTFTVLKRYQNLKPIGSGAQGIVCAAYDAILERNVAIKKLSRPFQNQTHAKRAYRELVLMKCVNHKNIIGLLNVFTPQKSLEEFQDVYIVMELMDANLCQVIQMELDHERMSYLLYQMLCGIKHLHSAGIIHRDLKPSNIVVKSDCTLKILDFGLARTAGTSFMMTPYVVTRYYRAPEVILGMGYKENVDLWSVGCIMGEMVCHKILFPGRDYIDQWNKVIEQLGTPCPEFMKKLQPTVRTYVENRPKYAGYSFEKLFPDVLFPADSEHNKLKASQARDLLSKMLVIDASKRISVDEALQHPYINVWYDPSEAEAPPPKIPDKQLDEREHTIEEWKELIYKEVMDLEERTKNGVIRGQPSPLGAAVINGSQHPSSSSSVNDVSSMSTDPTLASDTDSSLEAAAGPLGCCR
T6 sequence (Q9BWU1 whole entry): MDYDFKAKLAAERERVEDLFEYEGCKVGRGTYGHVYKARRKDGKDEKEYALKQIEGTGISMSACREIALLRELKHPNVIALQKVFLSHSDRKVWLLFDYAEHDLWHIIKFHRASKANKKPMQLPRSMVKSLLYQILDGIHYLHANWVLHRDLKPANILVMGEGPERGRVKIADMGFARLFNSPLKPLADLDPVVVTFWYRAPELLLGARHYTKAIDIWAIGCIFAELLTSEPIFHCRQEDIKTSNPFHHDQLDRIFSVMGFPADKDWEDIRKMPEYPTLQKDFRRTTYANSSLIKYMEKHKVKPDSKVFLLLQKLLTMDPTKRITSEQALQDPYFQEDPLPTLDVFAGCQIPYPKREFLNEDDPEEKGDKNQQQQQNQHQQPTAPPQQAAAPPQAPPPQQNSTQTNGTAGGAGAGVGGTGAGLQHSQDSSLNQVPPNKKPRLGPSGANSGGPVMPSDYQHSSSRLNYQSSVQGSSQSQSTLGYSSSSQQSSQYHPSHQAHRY
T7 sequence (Q9H4B4 whole entry): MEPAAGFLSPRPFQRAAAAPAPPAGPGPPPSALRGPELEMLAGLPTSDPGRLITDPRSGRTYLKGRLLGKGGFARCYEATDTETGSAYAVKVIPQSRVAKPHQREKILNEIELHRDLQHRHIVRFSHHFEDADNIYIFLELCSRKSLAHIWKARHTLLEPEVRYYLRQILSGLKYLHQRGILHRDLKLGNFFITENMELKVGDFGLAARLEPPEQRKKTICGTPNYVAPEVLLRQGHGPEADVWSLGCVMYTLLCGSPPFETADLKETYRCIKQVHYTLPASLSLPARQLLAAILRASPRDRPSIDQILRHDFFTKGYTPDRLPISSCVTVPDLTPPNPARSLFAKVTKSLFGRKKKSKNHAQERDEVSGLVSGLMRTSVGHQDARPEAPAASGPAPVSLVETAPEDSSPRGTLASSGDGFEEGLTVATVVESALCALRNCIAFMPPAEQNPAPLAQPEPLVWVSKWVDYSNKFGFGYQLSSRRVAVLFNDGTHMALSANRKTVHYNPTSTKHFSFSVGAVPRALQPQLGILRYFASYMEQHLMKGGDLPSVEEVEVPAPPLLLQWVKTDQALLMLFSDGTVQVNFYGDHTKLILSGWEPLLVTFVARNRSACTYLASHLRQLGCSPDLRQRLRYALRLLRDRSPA
T12 sequence (Q8NI60 163-647): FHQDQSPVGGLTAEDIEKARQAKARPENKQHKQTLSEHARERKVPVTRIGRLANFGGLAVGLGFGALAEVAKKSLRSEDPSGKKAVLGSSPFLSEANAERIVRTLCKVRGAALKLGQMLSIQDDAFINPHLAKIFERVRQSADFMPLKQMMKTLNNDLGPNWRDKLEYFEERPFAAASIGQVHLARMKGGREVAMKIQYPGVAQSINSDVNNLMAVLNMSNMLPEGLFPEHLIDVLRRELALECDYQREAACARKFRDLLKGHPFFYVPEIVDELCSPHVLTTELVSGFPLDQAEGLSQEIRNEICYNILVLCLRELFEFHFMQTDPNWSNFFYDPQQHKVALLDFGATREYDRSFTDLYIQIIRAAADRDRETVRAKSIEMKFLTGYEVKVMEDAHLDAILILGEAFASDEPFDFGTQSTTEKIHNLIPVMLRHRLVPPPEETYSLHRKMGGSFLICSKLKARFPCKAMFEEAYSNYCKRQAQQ
T8 sequence (P31751 whole entry): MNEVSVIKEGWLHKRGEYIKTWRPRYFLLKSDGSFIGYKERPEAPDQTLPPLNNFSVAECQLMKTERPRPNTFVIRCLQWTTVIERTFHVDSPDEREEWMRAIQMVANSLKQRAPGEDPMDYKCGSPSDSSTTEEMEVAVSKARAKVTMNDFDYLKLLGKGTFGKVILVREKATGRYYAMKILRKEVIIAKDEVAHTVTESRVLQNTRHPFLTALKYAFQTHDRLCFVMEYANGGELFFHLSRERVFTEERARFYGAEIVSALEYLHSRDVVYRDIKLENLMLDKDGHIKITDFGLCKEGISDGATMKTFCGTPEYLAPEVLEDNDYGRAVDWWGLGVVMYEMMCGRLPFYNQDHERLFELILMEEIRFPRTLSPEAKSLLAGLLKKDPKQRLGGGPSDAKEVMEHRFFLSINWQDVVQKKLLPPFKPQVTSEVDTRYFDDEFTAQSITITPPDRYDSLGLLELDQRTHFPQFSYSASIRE

CN(C)CCNC(=O)c1cc2c(cnn2CC2CCCCC2)cc1Cc1ccc(F)cc1F [Compound 95, 1-(Cyclohexylmethyl)-5-(2,4-difluorobenzyl)-N-(2-(dimethylamino)ethyl)-1H-indazole-6-carboxamide]
RA @ 1000nM (CDK9): 100%
RA @ 10000nM (CDK9): 93%
efficacy in PA task [1]: not statistically significantly effective
step-through latency, retention trial (PA task) [1]: statistically significant prolonged step-through latency
RA @ 1000nM (KIT): 100%
RA @ 10000nM (KIT): 100%
RA @ 1000nM (MAPKAPK2): 100%
RA @ 10000nM (MAPKAPK2): 100%
RA @ 1000nM (PAK4): 100%
RA @ 10000nM (PAK4): 88%
RA @ 1000nM (BTK): 100%
RA @ 10000nM (BTK): 100%
RA @ 1000nM (JNK1): 100%
RA @ 10000nM (JNK1): 27%
RA @ 1000nM (SNARK): 93%
RA @ 10000nM (SNARK): 92%
RA @ 1000nM (BRAF(V600E)): 98%
RA @ 10000nM (BRAF(V600E)): 100%
RA @ 1000nM (CDK11): 92%
RA @ 10000nM (CDK11): 100%
RA @ 1000nM (PLK3): 88%
RA @ 10000nM (PLK3): 100%
RA @ 1000nM (AKT2): 100%
RA @ 10000nM (AKT2): 88%
RA @ 1000nM (TGFBR1): 100%
RA @ 10000nM (TGFBR1): 100%
RA @ 1000nM (RIOK2): 88%
RA @ 10000nM (RIOK2): 81%
RA @ 1000nM [2]: 96%
RA @ 10000nM [2]: 93%
RA @ 1000nM (ADCK3): 100%
RA @ 10000nM (ADCK3): 81%
RA @ 1000nM [3]: 94%
RA @ 10000nM [3]: 94%
RA @ 1000nM (MKNK1): 100%
RA @ 10000nM (MKNK1): 100%

CC(C)Cn1ncc2cc(Cc3ccc(F)cc3F)c(C(=O)NCCN(C)C)cc21 [Compound 94, 5-(2,4-Difluorobenzyl)-N-(2-(dimethylamino)ethyl)-1-isobutyl-1H-indazole-6-carboxamide]
RA @ 1000nM (CDK9): 100%
RA @ 10000nM (CDK9): 100%
efficacy in PA task [1]: not statistically significantly effective
step-through latency, retention trial (PA task) [1]: statistically significant prolonged step-through latency
RA @ 1000nM (KIT): 100%
RA @ 10000nM (KIT): 100%
RA @ 1000nM (MAPKAPK2): 100%
RA @ 10000nM (MAPKAPK2): 84%
RA @ 1000nM (PAK4): 97%
RA @ 10000nM (PAK4): 96%
RA @ 1000nM (BTK): 100%
RA @ 10000nM (BTK): 100%
RA @ 1000nM (JNK1): 77%
RA @ 10000nM (JNK1): 41%
RA @ 1000nM (SNARK): 100%
RA @ 10000nM (SNARK): 93%
RA @ 1000nM (BRAF(V600E)): 100%
RA @ 10000nM (BRAF(V600E)): 100%
RA @ 1000nM (CDK11): 100%
RA @ 10000nM (CDK11): 89%
RA @ 1000nM (PLK3): 100%
RA @ 10000nM (PLK3): 97%
RA @ 1000nM (AKT2): 89%
RA @ 10000nM (AKT2): 76%
RA @ 1000nM (TGFBR1): 100%
RA @ 10000nM (TGFBR1): 100%
RA @ 1000nM (RIOK2): 85%
RA @ 10000nM (RIOK2): 92%
RA @ 1000nM [2]: 96%
RA @ 10000nM [2]: 55%
RA @ 1000nM (ADCK3): 100%
RA @ 10000nM (ADCK3): 100%
RA @ 1000nM [3]: 86%
RA @ 10000nM [3]: 65%
RA @ 1000nM (MKNK1): 100%
RA @ 10000nM (MKNK1): 100%
